Results published in US20110263662A1, “1,2-DIAMIDO-ETHYLENE DERIVATIVES AS OREXIN ANTAGONISTS” (priority 2007, published 2011).

How the values were obtained:
human orexin-1 receptor = target: T1, human orexin-1 receptor (Homo sapiens, UniProt O43613); experiment: FLIPR intracellular calcium assay, orexin receptor antagonistic activity (OX1); format: cell-based; details: CHO cells expressing human orexin-1 receptor, 3 nM orexin-A
T1 construct: expressed in transfected cells; host or cells: CHO (Chinese hamster ovary) cells, grown under G418 selection
T1 sequence (O43613 1-425): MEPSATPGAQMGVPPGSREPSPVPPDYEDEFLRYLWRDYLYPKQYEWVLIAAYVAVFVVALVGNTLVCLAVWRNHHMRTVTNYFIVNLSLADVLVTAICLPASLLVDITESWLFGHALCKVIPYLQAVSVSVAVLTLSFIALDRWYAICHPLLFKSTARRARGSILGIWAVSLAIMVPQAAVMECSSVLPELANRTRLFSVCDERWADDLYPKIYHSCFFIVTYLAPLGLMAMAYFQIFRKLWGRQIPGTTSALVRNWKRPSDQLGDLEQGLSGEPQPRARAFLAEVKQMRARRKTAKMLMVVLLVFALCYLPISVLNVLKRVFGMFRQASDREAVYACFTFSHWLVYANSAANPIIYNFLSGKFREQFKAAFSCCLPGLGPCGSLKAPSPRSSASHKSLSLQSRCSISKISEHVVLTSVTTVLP
Description: (§1) Chinese hamster ovary (CHO) cells expressing the human orexin-1 receptor and the human orexin-2 receptor, respectively, are grown in culture medium (Ham F-12 with L-Glutamine) containing 300 μg/ml G418, 100 U/ml penicillin, 100 μg/ml streptomycin and 10% heat inactivated fetal calf serum (FCS). The cells are seeded at 20′000 cells/well into 384-well black clear bottom sterile plates (Greiner). The seeded plates are incubated overnight at 37° C. in 5% CO2.
(§2) Human orexin-A as an agonist is prepared as 1 mM stock solution in MeOH:water (1:1), diluted in HBSS containing 0.1% bovine serum albumin (BSA), NaHCO3:0.375 g/l and 20 mM HEPES for use in the assay at a final concentration of 3 nM.
(§3) Antagonists are prepared as 10 mM stock solution in DMSO, then diluted in 384-well plates, first in DMSO, then in HBSS containing 0.1% bovine serum albumin (BSA), NaHCO3: 0.375 g/l and 20 mM HEPES.
(§4) On the day of the assay, 50 μl of staining buffer (HBSS containing 1% FCS, 20 mM HEPES, NaHCO3: 0.375 g/l, 5 mM probenecid (Sigma) and 3 μM of the fluorescent calcium indicator fluo-4 AM (1 mM stock solution in DMSO, containing 10% pluronic) is added to each well.
(§5) The 384-well cell-plates are incubated for 50 min at 37° C. in 5% CO2 followed by equilibration at RT for 30-120 min before measurement.
(§6) Within the Fluorescent Imaging Plate Reader (FLIPR2 or FLIPR Tetra, Molecular Devices), antagonists are added to the plate in a volume of 10 μl/well, incubated for 10 min and finally 10 μl/well of agonist is added. Fluorescence is measured for each well at 1 second intervals, and the height of each fluorescence peak is compared to the height of the fluorescence peak induced by 3 nM orexin-A with vehicle in place of antagonist. For each antagonist, the IC50 value (the concentration of compound needed to inhibit 50% of the agonistic response) is determined. Optimized conditions may be achieved by adjustment of pipetting speed and cell splitting regime. The calculated IC50 values of the compounds may fluctuate depending on the daily cellular assay performance. Fluctuations of this kind are known to those skilled in the art.

human orexin-2 receptor = target: T2, human orexin-2 receptor (Homo sapiens, UniProt O43614); experiment: FLIPR intracellular calcium assay, orexin receptor antagonistic activity (OX2); format: cell-based; details: CHO cells expressing human orexin-2 receptor, 3 nM orexin-A
T2 construct: expressed in transfected cells; host or cells: CHO (Chinese hamster ovary) cells, grown under G418 selection
T2 sequence (O43614 1-444): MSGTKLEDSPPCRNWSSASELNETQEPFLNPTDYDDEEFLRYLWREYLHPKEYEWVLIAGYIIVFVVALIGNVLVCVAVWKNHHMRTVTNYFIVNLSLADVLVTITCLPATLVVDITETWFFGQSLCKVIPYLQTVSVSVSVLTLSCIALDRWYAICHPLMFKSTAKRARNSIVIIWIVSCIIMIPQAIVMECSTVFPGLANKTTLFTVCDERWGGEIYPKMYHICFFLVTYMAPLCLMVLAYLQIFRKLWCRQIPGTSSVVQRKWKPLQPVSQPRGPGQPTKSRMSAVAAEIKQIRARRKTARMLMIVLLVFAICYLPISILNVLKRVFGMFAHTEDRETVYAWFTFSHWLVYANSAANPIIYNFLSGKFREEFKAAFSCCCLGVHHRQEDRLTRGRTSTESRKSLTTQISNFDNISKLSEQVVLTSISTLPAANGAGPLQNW
Description: as §1, §2, §3, §4, §5, §6

[1] = FLIPR 2, geometric mean from n = 2 values
[2] = measured with FLIPR Tetra (marked *)

Row | SMILES | IC50 (human orexin-1 receptor; measured with FLIPR 2) [nM] | IC50 (human orexin-2 receptor; measured with FLIPR 2) [nM] | IC50 (human orexin-1 receptor; [2]) [nM] | IC50 (human orexin-2 receptor; [2]) [nM] | further results
1 | Cc1nc(C(=O)N(CCNC(=O)c2cccc3occc23)Cc2ccccc2)c(-c2ccc(F)cc2)s1 [Example 2, 5-(4-Fluoro-phenyl)-2-methyl-thiazole-4-carboxylic acid {2-[(benzofuran-4-carbonyl)-amino]-ethyl}-benzyl-amide] |  |  |  |  | IC50 (human orexin-1 receptor; [1]): 242 nM; IC50 (human orexin-2 receptor; [1]): 35 nM
2 | Cc1nc(C(=O)N(C)CCNC(=O)c2cccc3occc23)c(-c2ccc(F)cc2)s1 [Example 3, 5-(4-Fluoro-phenyl)-2-methyl-thiazole-4-carboxylic acid {2-[(benzofuran-4-carbonyl)-amino]-ethyl}-methyl-amide] |  |  |  |  | IC50 (human orexin-1 receptor; [1]): 150 nM; IC50 (human orexin-2 receptor; [1]): 27 nM
3 | Cc1nc(C(=O)N(CCNC(=O)c2cccc3c2OCCO3)Cc2ccc(C(F)(F)F)cc2)c(-c2ccccc2)s1 [Example 25, 2-Methyl-5-phenyl-thiazole-4-carboxylic acid {2-[(2,3-dihydro-benzo[1,4]dioxine-5-carbonyl)-amino]-ethyl}-(4-trifluoromethyl-benzyl)-amide] | 75 | 12 |  |  | 
4 | Cc1nc(C(=O)N(CCNC(=O)c2cccc3c2OCCO3)CC(C)C)c(-c2ccccc2)s1 [Example 31, 2-Methyl-5-phenyl-thiazole-4-carboxylic acid {2-[(2,3-dihydro-benzo[1,4]dioxine-5-carbonyl)-amino]-ethyl}-isobutyl-amide] | 504 | 85 |  |  | 
5 | Cc1ccc(-c2sc(Br)nc2C(=O)N(CCNC(=O)c2c(C)nc3sccn23)C2CC2)cc1 [Example 111, 6-Methyl-imidazo[2,1-b]thiazole-5-carboxylic acid {2-[(2-bromo-5-p-tolyl-thiazole-4-carbonyl)-cyclopropyl-amino]ethyl}-amide] |  |  | 39 | 23 | 
6 | COc1cccc(-c2sc(C)nc2C(=O)N(CCNC(=O)c2nn(C)c3ccccc23)C2CC2)c1 [Example 140, 1-Methyl-1H-indazole-3-carboxylic acid (2-{cyclopropyl-[5-(3-methoxy-phenyl)-2-methyl-thiazole-4-carbonyl]-amino}-ethyl)-amide] |  |  | 98 | 68 | 
7 | Cc1cccc(-c2ccccc2C(=O)N(CCNC(=O)c2nn(C)c3ccccc23)C2CC2)c1 [Example 144, 1-Methyl-1H-indazole-3-carboxylic acid {2-[cyclopropyl-(3′-methyl-biphenyl-2-carbonyl)-amino]-ethyl}-amide] |  |  | 95 | 20 | 
8 | Cc1nc(C(=O)N(CCNC(=O)c2cccc3occc23)C2CC2)c(-c2ccc(C)c(C)c2)s1 [Example 165, 5-(3,4-Dimethyl-phenyl)-2-methyl-thiazole-4-carboxylic acid {2-[(benzofuran-4-carbonyl)-amino]-ethyl}-cyclopropyl-amide] |  |  | 2 | 4.3 | 
9 | Cc1cccc(-c2sc(C3CC3)nc2C(=O)N(CCNC(=O)c2c(C)nc3sccn23)CC2CC2)c1 [Example 171, 6-Methyl-imidazo[2,1-b]thiazole-5-carboxylic acid {2-[cyclopropylmethyl-(2-cyclopropyl-5-m-tolyl-thiazole-4-carbonyl)-amino]-ethyl}-amide] |  |  | 16 | 12 | 
10 | COc1cccc(-c2sc(Br)nc2C(=O)N(CCNC(=O)c2c(C)nc3sccn23)CC2CC2)c1 [Example 179, 6-Methyl-imidazo[2,1-b]thiazole-5-carboxylic acid (2-{[2-bromo-5-(3-methoxy-phenyl)-thiazole-4-carbonyl]-cyclopropylmethyl-amino}-ethyl)-amide] |  |  | 10 | 10 | 

More lines, main results first:

Row | IC50 (human orexin-1 receptor; measured with FLIPR 2) [nM] | IC50 (human orexin-2 receptor; measured with FLIPR 2) [nM] | IC50 (human orexin-1 receptor; [2]) [nM] | IC50 (human orexin-2 receptor; [2]) [nM] | SMILES | further results
11 | 112 | 50 |  |  | Cc1nc(C(=O)N(C)C(CNC(=O)c2c(C)nc3sccn23)C2CC2)c(-c2ccccc2)s1 (racemic) [Example 47, 6-Methyl-imidazo[2,1-b]thiazole-5-carboxylic acid {(RS)-2-cyclopropyl-2-[methyl-(2-methyl-5-phenyl-thiazole-4-carbonyl)-amino]ethyl}-amide] | 
12 | 37 | 33 |  |  | Cc1nc(C(=O)NC(CNC(=O)c2c(C)nc3sccn23)C2CC2)c(-c2ccccc2)s1 (racemic) [Example 49, 6-Methyl-imidazo[2,1-b]thiazole-5-carboxylic acid {(RS)-2-cyclopropyl-2-[(2-methyl-5-phenyl-thiazole-4-carbonyl)-amino]-ethyl}-amide] | 
13 | 27 | 50 |  |  | Cc1nc(C(=O)N(Cc2ccccc2)C(CNC(=O)c2c(C)nc3sccn23)Cc2ccccc2)c(-c2ccccc2)s1 (racemic) [Example 71, 6-Methyl-imidazo[2,1-b]thiazole-5-carboxylic acid {(RS)-2-[benzyl-(2-methyl-5-phenyl-thiazole-4-carbonyl)-amino]-3-phenyl-propyl}-amide] | 
14 | 119 | 19 |  |  | Cc1nc2sccn2c1C(=O)NCC(Cc1ccccc1)NC(=O)c1ccccc1-c1ccccc1 (racemic) [Example 73, 6-Methyl-imidazo[2,1-b]thiazole-5-carboxylic acid {(RS)-2-[(biphenyl-2-carbonyl)-amino]-3-phenyl-propyl}-amide] | 
15 | 437 | 303 |  |  | Cc1nc(C(=O)NC(CNC(=O)c2cccc3occc23)CC(C)C)c(-c2ccccc2)s1 (racemic) [Example 83, 2-Methyl-5-phenyl-thiazole-4-carboxylic acid ((RS)-1-{[(benzofuran-4-carbonyl)-amino]-methyl}-3-methyl-butyl)-amide] | 
16 | 84 | 46 |  |  | Cc1nc2sccn2c1C(=O)NCC(CC(C)C)NC(=O)c1ccccc1-c1ccccc1 (racemic) [Example 88, 6-Methyl-imidazo[2,1-b]thiazole-5-carboxylic acid {(RS)-2-[(biphenyl-2-carbonyl)-amino]-4-methyl-pentyl}-amide] | 
17 | 5.7 | 5.8 |  |  | Cc1nc2sccn2c1C(=O)NCC(C)N(Cc1ccccc1)C(=O)c1ccccc1-c1ccccc1 (racemic) [Example 97, 6-Methyl-imidazo[2,1-b]thiazole-5-carboxylic acid {(RS)-2-[benzyl-(biphenyl-2-carbonyl)-amino]-propyl}-amide] | 
18 | 114 | 718 |  |  | Cc1nc2sccn2c1C(=O)NCC(C(C)C)N(Cc1ccccc1)C(=O)c1ccccc1-c1ccccc1 (racemic) [Example 99, 6-Methyl-imidazo[2,1-b]thiazole-5-carboxylic acid {(RS)-2-[benzyl-(biphenyl-2-carbonyl)-amino]-3-methyl-butyl}-amide] | 
19 | 7.8 | 11 |  |  | Cc1nc(C(=O)N(CCNC(=O)c2c(C)nc3sccn23)Cc2ccc(F)cc2)c(-c2ccccc2)s1 [Example 18, 6-Methyl-imidazo[2,1-b]thiazole-5-carboxylic acid {2-[(4-fluoro-benzyl)-(2-methyl-5-phenyl-thiazole-4-carbonyl)-amino]-ethyl}-amide] | 
